Experiments:
[1] = target: LPA1 (Homo sapiens, UniProt Q92633); assay: LPA1 Migration Assay (Oris); assay type: cell-based; design: host or cells: primary fibroblasts (lung, dermal), HFL-1, 3T3 and CHO cells expressing LPA1R; conditions: read-out: Cell Migration EC50
Description: LPA1 Migration Assay Migration of primary fibroblasts (including lung, dermal), HFL-1, 3T3 and CHO cells expressing LPA1R were monitored using the Oris™ assay (Platypus Technologies, Madison, Wis.). These cells were dye (Cell Tracker Green™) loaded and serum starved for 12-24 hrs. In response to chemoattractants such as LPA and serum, the cells migrated inward in to the exclusion (detection) zone. After fixing, fluorescent cells in the detection zone were counted using a high content reader. The ability of LPA1 antagonists to inhibit cell migration is quantified by plotting cell number vs. compound concentration and curve fitting the resulting dose-response curve to a 4 parameter logistic function.

[2] = target: T1, LPA/S1P GPCR of interest (Homo sapiens, UniProt Q92633); assay: Beta-Arrestin based assay (PathHunter); assay type: cell-based
T1 construct: host or cells: CHO
Procedure, shortened: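 EA Parental CHO cells (DiscoverX) were transfected with FuGENE (Roche) using CMV promoter-driven DNA constructs encoding the LPA/S1P GPCR of interest fused to a ProLink tag. Beta-arrestin recruitment in agonist mode was assessed 24-48 hrs later with PathHunter kits. Tests ran in quadruplicate in white 384 well plates, and end point luminescence was fit to a 4 parameter logistic function.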

Chain of LPA1 (Q92633 whole entry): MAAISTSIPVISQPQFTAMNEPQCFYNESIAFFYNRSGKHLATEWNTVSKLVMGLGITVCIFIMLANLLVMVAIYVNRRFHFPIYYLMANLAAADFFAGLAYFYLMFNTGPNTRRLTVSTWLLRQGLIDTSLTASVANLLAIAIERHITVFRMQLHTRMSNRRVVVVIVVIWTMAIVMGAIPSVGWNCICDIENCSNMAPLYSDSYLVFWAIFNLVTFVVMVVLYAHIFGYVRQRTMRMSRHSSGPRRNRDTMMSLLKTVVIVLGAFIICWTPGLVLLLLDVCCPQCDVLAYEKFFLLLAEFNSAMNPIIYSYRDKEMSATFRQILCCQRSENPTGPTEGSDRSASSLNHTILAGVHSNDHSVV
T1 sequence (Q92633 whole entry): as above

| SMILES | EC50 [1] [nM] | EC50 [2] [nM] |
| --- | --- | --- |
| C[C@@H](OC(=O)Nc1c(-c2cc3sc(-c4ccc(CC(=O)O)c(F)c4)cc3s2)cnn1C)c1ccccc1 [IT164] | > 500 | < 50 |
| Cc1nsc(-c2cc3sc(-c4ccc(CC(=O)O)cc4N)cc3s2)c1NC(=O)O[C@H](C)c1ccccc1 [IT182] | > 500 | > 500 |
| C[C@@H](OC(=O)Nc1c(-c2cc3sc(-c4ccc(CC(=O)O)cc4Cl)cc3s2)cnn1C)c1ccccc1 [IT140] | > 500 | 50 to 500 |
| C[C@@H](OC(=O)Nc1c(-c2ccc(-c3cc(F)c(OC(C)(C)C(=O)O)c(F)c3)cc2)cnn1C)c1ccccc1 [IT503] | > 500 | 50 to 500 |
| CC(=O)N(C(C)=O)S(=O)(=O)c1ccc(-c2ccc(-c3onc(C)c3NC(=O)O[C@H](C)c3ccccc3)cc2)cc1 [IT130] | > 500 | > 500 |
| Cc1nsc(-c2cc3sc(-c4cc(F)c(CC(=O)O)c(F)c4)cc3s2)c1NC(=O)O[C@H](C)c1ccccc1 [IT156] | > 500 | 50 to 500 |
| C[C@@H](OC(=O)Nc1c(C2CCC(c3ccc(C4(C(=O)O)CC4)cc3)CC2)cnn1C)c1ccccc1 (some centres unmarked) [IT066] | > 500 | – |
| Cc1noc(-c2ccc(-c3ccc(Oc4ncn(C)c4C(=O)O)cc3)cc2)c1NC(=O)O[C@H](C)c1ccccc1 [IT486] | > 500 | 50 to 500 |
| C[C@@H](OC(=O)Nc1c(-c2ccc(-c3ccc(OC(C)(C)C(=O)O)cc3)cc2)cnn1C)c1ccccc1 [IT510] | > 500 | 50 to 500 |
| Cc1noc(-c2ccc(-c3ccc4c(c3)CCCC4C(=O)O)cc2)c1NC(=O)O[C@H](C)c1ccccc1 (mixture of isomers) [IT039] | > 500 | – |
| Cc1nnn(-c2cc(F)c(-c3cc4sc(C5(C(=O)O)CC5)cc4s3)cc2F)c1NC(=O)O[C@H](C)c1ccccc1 [IT067] | > 500 | – |
| C[C@@H](OC(=O)Nc1c(-c2ccc(-c3ccc(C4(C(=O)O)CC4)cc3)cc2)nn2cccnc12)c1ccccc1 [IT052] | > 500 | – |
| CC(C)OC(=O)C1(c2cc3sc(C#Cc4cnn(C)c4NC(=O)O[C@H](C)c4ccccc4)cc3s2)CC1 [IT086] | > 500 | – |
| C[C@@H](OC(=O)N(C)c1c(C#Cc2cc3sc(C4(C(=O)O)CC4)cc3s2)cnn1C)c1ccccc1 [IT097] | > 500 | – |
| CCOC(=O)C1(c2cc3sc(C#Cc4cnn(C)c4NC(=O)O[C@H](C)c4ccccc4)cc3s2)CC1 [IT085] | > 500 | – |
| Cc1noc(-c2ccc(-c3ccc4c(c3)NC(=O)CC4C(=O)O)cc2)c1NC(=O)O[C@H](C)c1ccccc1 (some centres unmarked) [IT011] | > 500 | – |
| C[C@@H](OC(=O)Nc1c(-c2cc(F)c(-c3ccc(C4(C(=O)O)CC4)cc3)cc2F)nn2ccccc12)c1ccccc1 [IT049] | 50 to 500 | – |
| C[C@@H](OC(=O)Nc1c(-c2ccc(-c3ccc(C4(C(=O)O)CC4)cc3)cc2)nc2cnccn12)c1ccccc1 [IT032] | 50 to 500 | – |
| C[C@@H](OC(=O)Nc1c(-c2ccc(-c3cc4sc(C5(C(=O)O)CC5)cc4s3)cc2)cnn1C)c1ccccc1 [IT056] | 50 to 500 | – |
| COc1ccccc1OC(=O)C1(c2cc3sc(C#Cc4cnn(C)c4NC(=O)O[C@H](C)c4ccccc4)cc3s2)CC1 [IT088] | 50 to 500 | – |
| Cc1noc(C#Cc2ccc3cc(CC4(C(=O)O)CC4)ccc3c2)c1NC(=O)O[C@H](C)c1ccccc1 [IT065] | > 500 | – |
| C[C@@H](OC(=O)Nc1c(CCc2cc3sc(C4(C(=O)O)CC4)cc3s2)cnn1C)c1ccccc1 [IT099] | > 500 | – |
| Cc1nsc(C#Cc2cc3sc(C4(C(=O)O)CC4)cc3s2)c1NC(=O)O[C@H](C)c1ccccc1 [IT034] | 50 to 500 | – |
| C[C@@H](OC(=O)Nc1c(-c2cc(F)c(-c3ccc(C4(C(=O)O)CC4)cc3)cc2F)oc2ccccc12)c1ccccc1 [IT075] | 50 to 500 | – |
| C[C@@H](OC(=O)Nc1c(C#Cc2cc3sc(C4(C(=O)O)CC4)cc3s2)oc2ccccc12)c1ccccc1 [IT074] | > 500 | – |

Next, values leading:

| EC50 [1] [nM] | EC50 [2] [nM] | SMILES |
| --- | --- | --- |
| < 50 | < 50 | Cc1nsc(-c2ccc(-c3cc(F)c(Oc4ccsc4C(=O)O)c(F)c3)cc2)c1NC(=O)O[C@H](C)c1ccccc1 [IT462] |
| 50 to 500 | < 50 | C[C@@H](OC(=O)Nc1c(-c2ccc(-c3ccc(C(C(=O)O)C4CCC4)cc3)cc2)cnn1C)c1ccccc1 (some centres unmarked) [IT151] |
| 50 to 500 | – | C[C@@H](OC(=O)Nc1c(C#Cc2ccc3cc(C4(C(=O)O)CC4)ccc3c2)cnn1C)c1ccccc1 [IT014] |
| 50 to 500 | < 50 | Cc1noc(-c2ccc(-c3ccc(OC(C)(C)C(=O)O)c(F)c3)cc2)c1NC(=O)O[C@H](C)c1ccccc1 [IT506] |
| 50 to 500 | 50 to 500 | C[C@@H](OC(=O)Nc1c(-c2cc3sc(-c4cc(Cl)c(C5(C(=O)O)CC5)cc4F)cc3s2)cnn1C)c1ccccc1 [IT284] |
| 50 to 500 | – | C[C@@H](OC(=O)Nc1c(-c2ccc(-c3ccc(C4(C(=O)O)CC4)cc3)cc2)nc2ncccn12)c1ccccc1 [IT043] |
| 50 to 500 | < 50 | Cc1nnn(-c2ccc(-c3cc(F)c(Oc4cccnc4C(=O)O)c(F)c3)cc2)c1NC(=O)O[C@H](C)c1ccccc1 [IT437] |
| 50 to 500 | – | C[C@@H](OC(=O)Nc1c(C#Cc2ccc3cc(C4(C(=O)O)CC4)ccc3c2)cnn1C1CC1)c1ccccc1 [IT015] |
| 50 to 500 | – | C[C@@H](OC(=O)Nc1c(-c2cc(F)c(-c3cc4sc(C5(C(=O)O)CC5)cc4s3)cc2F)nnn1C)c1ccccc1 [IT071] |
| 50 to 500 | – | C[C@@H](OC(=O)Nc1c(-c2ccc(-c3ccc(C4(C(=O)O)CC4)cc3)cc2)sc2ncccc12)c1ccccc1 [IT031] |
| 50 to 500 | – | Cc1nsc(-c2ccc(-c3cc4sc(C5(C(=O)O)CC5)cc4s3)cc2)c1NC(=O)O[C@H](C)c1ccccc1 [IT046] |
| 50 to 500 | – | Cc1noc(C#Cc2cc3sc(C4(C(=O)O)CC4)cc3s2)c1NC(=O)OCc1ccccc1 [IT048] |
| 50 to 500 | – | C[C@@H](OC(=O)Nc1c(-c2cc(F)c(-c3ccc(C4(C(=O)O)CC4)cc3)cc2F)nn2ncccc12)c1ccccc1 [IT061] |
| 50 to 500 | – | C[C@@H](OC(=O)Nc1c(-c2ccc(-c3cc4sc(C5(C(=O)O)CC5)cc4s3)cc2)nnn1C)c1ccccc1 [IT050] |
| 50 to 500 | – | Cc1noc(C#Cc2ccc3cc(C4(CC(=O)O)CC4)ccc3c2)c1NC(=O)O[C@H](C)c1ccccc1 [IT003] |
| 50 to 500 | – | COCCOC(=O)C1(c2cc3sc(C#Cc4cnn(C)c4NC(=O)O[C@H](C)c4ccccc4)cc3s2)CC1 [IT084] |
| 50 to 500 | – | Cc1nsc(-c2cc(F)c(-c3ccc(C4(C(=O)O)CCOCC4)cc3)cc2F)c1NC(=O)O[C@H](C)c1ccccc1 [IT042] |
| 50 to 500 | – | CCn1ncc(C#Cc2ccc3cc(C4(C(=O)O)CC4)ccc3c2)c1NC(=O)O[C@H](C)c1ccccc1 [IT016] |
| 50 to 500 | – | C[C@@H](OC(=O)Nc1c(C#Cc2cc3sc(C4(C(=O)O)CC4)cc3s2)nnn1C)c1ccccc1 [IT069] |
| 50 to 500 | – | C[C@@H](OC(=O)Nc1c(C#Cc2ccc3cc(C4(C(=O)O)CC4)ccc3c2)nnn1C)c1ccccc1 [IT064] |
| 50 to 500 | – | C[C@@H](OC(=O)Nc1c(-c2ccc3cc(C#CC4(C(=O)O)CC4)ccc3c2)nnn1C)c1ccccc1 [IT146] |
| 50 to 500 | – | C[C@@H](OC(=O)Nc1c(C#Cc2cc3sc(C4(C(=O)OCC(=O)N(C)C)CC4)cc3s2)cnn1C)c1ccccc1 [IT090] |
| 50 to 500 | – | C[C@@H](OC(=O)Nc1c(-c2cc(F)c(-c3ccc(C4(C(=O)O)CCOCC4)cc3)cc2F)cnn1C)c1ccccc1 [IT044] |
| 50 to 500 | – | C[C@@H](OC(=O)Nc1c(C#Cc2ccc3cc(C4(C(=O)O)CC4)ccc3c2)sc2ncccc12)c1ccccc1 [IT035] |

— patent US20140213538A1, “LYSOPHOSPHATIDIC ACID RECEPTOR ANTAGONISTS” (InterMune, Inc., priority 2013, published 2014)
